By IC20 is commonly meant the concentration needed for an effect of 20%. Low values mean an effect from little substance, high ones a need for much substance.

The target of series [1] is T1, hERG K+ channel (Homo sapiens, UniProt Q12809).
T1 construct: expressed in transfected cells; host or cells: CHO (Chinese hamster ovary) cells, CHOhERG
Briefly: hERG channel inhibition assay. The following applies: patch-clamp (voltage-clamp, whole-cell); for IC50: CHO cells expressing hERG; for IC20: human, CHO cells stably expressing hERG. It counts as cell-based. The procedure: hERG Channel Inhibition Assay
The hERG K^+ channels were cloned in humans and stably expressed in a CHO (Chinese hamster ovary) cell line. CHOhERG cells were used for patch-clamp (voltage-clamp, whole-cell) experiments. Cells were stimulated by a voltage pattern to activate hERG channels and conduct IKhERG currents (rapid delayed outward rectifier potassium current of the hERG channel). After the cells were stabilized for a few minutes, the amplitude and kinetics of IKhERG were recorded at a stimulation frequency of 0.1 Hz (6 bpm). Thereafter, the test compound was added to the preparation at increasing concentrations. For each concentration, an attempt was made to reach a steady-state effect, usually, this was achieved within 3-10 min at which time the next highest concentration was applied. The amplitude and kinetics of IKhERG are recorded in each concentration of the drug which were compared to the control values (taken as 100%). (references: Redfem W S, Carlsson L, Davis A S, Lynch W G, MacKenzie I, Palethorpe S, Siegl P K, Strang I, Sullivan A T, Wallis R, Camm A J, Hammond T G. 2003; Relationships between preclinical cardiac electrophysiology, clinical QT interval prolongation and torsade de pointes for a broad range of drugs: evidence for a provisional safety margin in drug development. Cardiovasc. Res. 58:32-45, Sanguinetti M C, Tristani-Firouzi M. 2006; hERG potassium channels and cardiac arrhythmia. Nature 440:463-469, Webster R, Leishman D, Walker D. 2002; Towards a drug concentration effect relationship for QT prolongation and torsades de pointes. Curr. Opin. Drug Discov. Devel. 5:116-26).
(The hERG channel carries a current that helps repolarise heart muscle cells.)

Series [2] deals with T2, human TLR8 (Homo sapiens, UniProt Q9NR97).
T2 sequence (Q9NR97 27-1041): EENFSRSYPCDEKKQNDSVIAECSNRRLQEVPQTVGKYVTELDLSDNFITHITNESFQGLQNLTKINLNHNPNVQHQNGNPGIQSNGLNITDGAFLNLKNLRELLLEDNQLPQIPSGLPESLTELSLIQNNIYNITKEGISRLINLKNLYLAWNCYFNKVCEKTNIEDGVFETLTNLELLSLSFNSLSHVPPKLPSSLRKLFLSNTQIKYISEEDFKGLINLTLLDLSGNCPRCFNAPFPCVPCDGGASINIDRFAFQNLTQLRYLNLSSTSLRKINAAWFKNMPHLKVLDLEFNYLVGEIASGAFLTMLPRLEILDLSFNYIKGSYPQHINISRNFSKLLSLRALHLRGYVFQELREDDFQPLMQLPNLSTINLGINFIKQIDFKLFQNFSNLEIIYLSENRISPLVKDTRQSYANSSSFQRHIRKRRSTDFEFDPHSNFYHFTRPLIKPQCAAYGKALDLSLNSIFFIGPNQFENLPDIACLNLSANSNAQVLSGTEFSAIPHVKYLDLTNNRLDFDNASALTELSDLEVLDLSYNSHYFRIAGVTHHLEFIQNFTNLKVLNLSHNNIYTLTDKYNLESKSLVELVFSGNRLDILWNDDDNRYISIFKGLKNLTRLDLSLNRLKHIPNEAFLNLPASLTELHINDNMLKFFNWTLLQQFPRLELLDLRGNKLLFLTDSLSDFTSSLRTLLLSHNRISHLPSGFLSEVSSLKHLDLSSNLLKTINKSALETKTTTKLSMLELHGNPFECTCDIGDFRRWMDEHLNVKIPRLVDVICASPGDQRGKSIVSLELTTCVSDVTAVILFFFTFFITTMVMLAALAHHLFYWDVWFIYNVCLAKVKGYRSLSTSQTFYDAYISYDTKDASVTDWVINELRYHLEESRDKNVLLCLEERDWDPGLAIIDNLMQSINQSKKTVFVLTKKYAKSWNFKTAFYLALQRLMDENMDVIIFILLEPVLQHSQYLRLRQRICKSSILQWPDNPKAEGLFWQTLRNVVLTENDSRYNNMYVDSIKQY
Briefly: HEK293-Blue-hTLR-8 cells assay. The format is cell-based. The settings on record: HEK293-Blue-hTLR8 cells, R848 stimulation, 20 hrs, SEAP reporter; read-out: HEK/hTLR8 IC50. In outline: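 Antagonism read out in HEK293-Blue-hTLR8 cells carrying an NF-κB/AP-1-driven SEAP reporter, stimulated with R848 (10 μL of 60 uM stock added) alongside serially diluted compound (1% DMSO), 20 h at 37° C. Supernatant SEAP measured with QUANTI-Blue after 2 h at 37° C, absorbance at 620-655 nm.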

T1 sequence (Q12809 whole entry): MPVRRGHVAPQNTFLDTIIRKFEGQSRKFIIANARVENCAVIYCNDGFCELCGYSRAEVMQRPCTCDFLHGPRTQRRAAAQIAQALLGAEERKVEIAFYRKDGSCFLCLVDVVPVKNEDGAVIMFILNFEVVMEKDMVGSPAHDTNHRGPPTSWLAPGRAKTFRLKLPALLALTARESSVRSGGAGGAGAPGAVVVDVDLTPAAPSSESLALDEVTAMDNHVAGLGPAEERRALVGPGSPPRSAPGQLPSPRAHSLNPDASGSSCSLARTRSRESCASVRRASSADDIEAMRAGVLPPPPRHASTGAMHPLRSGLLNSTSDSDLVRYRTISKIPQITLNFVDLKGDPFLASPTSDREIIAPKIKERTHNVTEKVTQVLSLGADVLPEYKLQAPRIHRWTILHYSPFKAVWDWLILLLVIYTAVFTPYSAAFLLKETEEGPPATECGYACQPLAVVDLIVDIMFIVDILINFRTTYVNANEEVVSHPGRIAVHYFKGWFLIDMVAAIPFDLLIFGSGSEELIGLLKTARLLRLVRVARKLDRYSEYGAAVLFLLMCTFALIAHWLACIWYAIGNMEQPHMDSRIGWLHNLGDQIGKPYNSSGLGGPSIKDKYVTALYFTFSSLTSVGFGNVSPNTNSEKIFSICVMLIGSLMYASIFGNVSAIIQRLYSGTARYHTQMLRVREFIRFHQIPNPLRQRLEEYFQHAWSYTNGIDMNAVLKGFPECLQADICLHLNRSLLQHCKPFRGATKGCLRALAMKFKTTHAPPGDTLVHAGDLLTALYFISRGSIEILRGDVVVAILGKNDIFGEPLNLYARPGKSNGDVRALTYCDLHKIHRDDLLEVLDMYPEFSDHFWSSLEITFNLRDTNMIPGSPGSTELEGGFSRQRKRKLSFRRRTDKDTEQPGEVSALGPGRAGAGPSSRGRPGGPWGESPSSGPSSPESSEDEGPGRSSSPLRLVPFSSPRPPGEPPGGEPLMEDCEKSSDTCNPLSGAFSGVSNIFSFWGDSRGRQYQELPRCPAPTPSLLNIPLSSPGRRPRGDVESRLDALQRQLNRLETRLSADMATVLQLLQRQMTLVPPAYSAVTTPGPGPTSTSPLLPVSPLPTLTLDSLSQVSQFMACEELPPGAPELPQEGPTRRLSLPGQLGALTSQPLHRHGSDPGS

Turning to `C[C@@H]1CN(c2ccc(C#N)c3ncccc23)C[C@@H]2c3ccc(N4CC5(CCN5)C4)cc3CN12` [Example 37, 5-[(4R,10bS)-8-(1,6-diazaspiro[3.3]heptan-6-yl)-4-methyl-3,4,6,10b-tetrahydro-1H-pyrazino[2,1-a]isoindol-2-yl]quinoline-8-carbonitrile], the IC50 in series [1] is more than 20 µM; in series [2], less than 3.2 nM. In series [1], this compound yielded an IC20 of 8.6 µM.

`C[C@@H]1CN(c2ccc(C#N)c3ncccc23)C[C@@H]2c3ccc(N4CCNC[C@H](O)C4)cc3CN12` [Example 53A, 5-[(4R,10bS)-8-[(6S)-6-hydroxy-1,4-diazepan-1-yl]-4-methyl-3,4,6,10b-tetrahydro-1H-pyrazino[2,1-a]isoindol-2-yl]quinoline-8-carbonitrile]: the IC50 in series [1] is more than 20 µM; in series [2] it was less than 3.2 nM. Further, it took 6.6 µM to reach the 20% level in series [1] (IC20).

In series [1], `C[C@@H]1CN(c2ccc(C#N)c3ncccc23)C[C@@H]2c3ccc(N4C[C@H](N)[C@@](C)(O)C4)cc3CN12` [Example 45B, 5-[(4R,10bS)-8-[(3S,4S)-4-amino-3-hydroxy-3-methyl-pyrrolidin-1-yl]-4-methyl-3,4,6,10b-tetrahydro-1H-pyrazino[2,1-a]isoindol-2-yl]quinoline-8-carbonitrile] returned an IC50 of more than 20 µM and an IC20 of more than 10 µM. Also, in series [2], the IC50 was found to be 1.2 nM.

Consider `C[C@@H]1CN(c2ccc(C#N)c3ncccc23)C[C@@H]2c3ccc(N4C[C@@H](N)[C@](C)(O)C4)cc3CN12` [Example 45A, 5-[(4R,10bS)-8-[(3R,4R)-4-amino-3-hydroxy-3-methyl-pyrrolidin-1-yl]-4-methyl-3,4,6,10b-tetrahydro-1H-pyrazino[2,1-a]isoindol-2-yl]quinoline-8-carbonitrile], for which the IC50 in series [1] is more than 20 µM; in series [2], 1.5 nM. The same compound returned an IC20 in series [1] of 7.4 µM.

On to `C[C@@H]1CN(c2ccc(C#N)c3ncccc23)C[C@@H]2c3ccc(N4CCOC[C@@H](N)C4)cc3CN12` [Example 54B, 5-[(4R,10bS)-8-[(6S)-6-amino-1,4-oxazepan-4-yl]-4-methyl-3,4,6,10b-tetrahydro-1H-pyrazino[2,1-a]isoindol-2-yl]quinoline-8-carbonitrile], for which, in series [1], the IC50 is more than 20 µM and the IC20 was more than 10 µM. Besides, the IC50 in series [2] was less than 3.2 nM.

`C[C@@H]1CN(c2ccc(C#N)c3ncccc23)C[C@@H]2c3ccc(NC4CNCCOC4)cc3CN12` (stereo partly drawn) [Example 56, 5-[(4R,10bS)-4-methyl-8-(1,4-oxazepan-6-ylamino)-3,4,6,10b-tetrahydro-1H-pyrazino[2,1-a]isoindol-2-yl]quinoline-8-carbonitrile]: in series [1], the IC50 was more than 20 µM and the IC20 is more than 10 µM. In addition, the IC50 in series [2] is less than 3.2 nM.

In series [1], `CN[C@H]1CN(c2ccc3c(c2)CN2[C@H](C)CN(c4ccc(C#N)c5ncccc45)C[C@H]32)C[C@@H]1O` [Example 42, 5-[(4R,10bS)-8-[(3S,4S)-3-hydroxy-4-(methylamino)pyrrolidin-1-yl]-4-methyl-3,4,6,10b-tetrahydro-1H-pyrazino[2,1-a]isoindol-2-yl]quinoline-8-carbonitrile] showed an IC50 of more than 20 µM and an IC20 of 6.7 µM. The IC50 in series [2] was less than 3.2 nM.

On to `C[C@@H]1CN(c2ccc(C#N)c3ncccc23)C[C@@H]2c3ccc(NC4CNC4)cc3CN12` [Example 28, 5-[(4R,10S)-8-(azetidin-3-ylamino)-4-methyl-3,4,6,10b-tetrahydro-1H-pyrazino[2,1-a]isoindol-2-yl]quinoline-8-carbonitrile], for which the values for the IC50 in series [1] and in series [2] were more than 20 µM and less than 3.2 nM, respectively. In series [1], this compound displayed an IC20 of more than 10 µM.

In series [1], `COC12CNCC1CN(c1ccc3c(c1)CN1[C@H](C)CN(c4ccc(C#N)c5ncccc45)C[C@H]31)C2` (stereo partly drawn) [Example 41, 5-[(4R,10bS)-8-(3a-methoxy-1,2,3,4,6,6a-hexahydropyrrolo[3,4-c]pyrrol-5-yl)-4-methyl-3,4,6,10b-tetrahydro-1H-pyrazino[2,1-a]isoindol-2-yl]quinoline-8-carbonitrile] yielded an IC50 of more than 20 µM and an IC20 of more than 10 µM. In addition, the IC50 in series [2] is less than 3.2 nM.

Turning to `C[C@@H]1CN(c2ccc(C#N)c3ncccc23)C[C@@H]2c3ccc(N4CCNCC(O)C4)cc3CN12` (stereo partly drawn) [Example 15, 5-[(4R,10bS)-8-(6-hydroxy-1,4-diazepan-1-yl)-4-methyl-3,4,6,10b-tetrahydro-1H-pyrazino[2,1-a]isoindol-2-yl]quinoline-8-carbonitrile], in series [1], the IC50 is more than 20 µM and the IC20 was more than 10 µM. The IC50 in series [2] was less than 3.2 nM.

On to `C[C@@H]1CN(c2ccc(C#N)c3ncccc23)CC2c3ccc(N4C[C@H](N)[C@@H](O)C4)cc3CN21` (relative stereo) [Example 21, 5-[(4R,10bS)-8-[trans-3-amino-4-hydroxy-pyrrolidin-1-yl]-4-methyl-3,4,6,10b-tetrahydro-1H-pyrazino[2,1-a]isoindol-2-yl]quinoline-8-carbonitrile], for which, in series [1], the IC50 is more than 20 µM and the IC20 is more than 10 µM. Also, in series [2], the IC50 is less than 3.2 nM.

In series [1], `C[C@@H]1CN(c2ccc(C#N)c3ncccc23)C[C@@H]2c3ccc(NCCN(C)C)cc3CN12` [Example 26, 5-[(4R,10bS)-8-[2-(dimethylamino)ethylamino]-4-methyl-3,4,6,10b-tetrahydro-1H-pyrazino[2,1-a]isoindol-2-yl]quinoline-8-carbonitrile] displayed an IC50 of more than 20 µM and an IC20 of 5 µM. Moreover, in series [2], the IC50 is less than 3.2 nM.

In the case of `C[C@@H]1CN(c2ccc(C#N)c3ncccc23)C[C@@H]2c3ccc(N4C[C@@H](N)[C@H](O)C4)cc3CN12` (single isomer, unassigned) [Example 40B], in series [1], the IC50 is more than 20 µM and the IC20 was more than 10 µM. For the same compound, the IC50 in series [2] turned out to be 0.9 nM.

As for `C[C@@H]1CN(c2ccc(C#N)c3ncccc23)C[C@@H]2c3ccc(N4CC5CNCC(C4)O5)cc3CN12` [Example 14, 5-[(4R,10bS)-4-methyl-8-(9-oxa-3,7-diazabicyclo[3.3.1]nonan-3-yl)-3,4,6,10b-tetrahydro-1H-pyrazino[2,1-a]isoindol-2-yl]quinoline-8-carbonitrile], in series [1], the IC50 is more than 20 µM and the IC20 was more than 10 µM. Besides, the IC50 in series [2] was less than 3.2 nM.

For `C[C@@H]1CN(c2ccc(C#N)c3ncccc23)C[C@@H]2c3ccc(N4C[C@H]5NCCO[C@@H]5C4)cc3CN12` [Example 44, 5-[(4R,10bS)-4-methyl-8-[(4aR,7aR)-3,4,4a,5,7,7a-hexahydro-2H-pyrrolo[3,4-b][1,4]oxazin-6-yl]-3,4,6,10b-tetrahydro-1H-pyrazino[2,1-a]isoindol-2-yl]quinoline-8-carbonitrile], in series [1], the IC50 was more than 20 µM and the IC20 turned out to be 6.4 µM. In series [2], the IC50 was 0.4 nM.

The record behind these values is US12157746B2, “Tetrahydro-1H-pyrazino[2,1-a]isoindolylquinoline compounds for the treatment of autoimmune disease” (F. HOFFMANN-LA ROCHE AG, priority 2018, dated 2024).
